In patent US8697694B2, “Substituted pyridine and pyrimidine derivatives and their use in treating viral infections” (priority 2008, dated 2014) one finds EC90 data, which are given here for 24 compounds.

Where only a bound is given, the exact number is not on record here.

For the experiment, the system named is HCV replicon cells. The experiment in a line: Cell-based HCV replicon assay (replicon RNA level by real time PCR, Taqman). The following applies: Hepatitis C virus, 72 h, HCV replicon cells, harvested day 3, replicon RNA by real time PCR; reported as range class; read-out: EC90 (μM) range. The procedure, abridged:
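Readout: ΔCT between NS5B replicon RNA and GAPDH by real-time RT-PCR in lysates harvested on day 3, fitted sigmoidally; EC50 at ΔCT=1, EC90 at ΔCT=3.2. Compounds tested at ten 2-fold dilutions from 25 μM to 1 μM start, 10% FBS, 0.5% DMSO.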
In general terms: A replicon is a self-replicating genome or part of one, used to study replication in cells.
One may read the EC90 as the concentration needed for an effect of 90%. Turning to `CCOc1ccc2nc(-c3c(Cl)nc(N)nc3N[C@@H]3C[C@H](CO)[C@H]4OC(C)(C)O[C@H]43)sc2c1` [Example 195], the EC90 is < 0.5 µM.
For `CNc1ccc2nc(-c3c(Cl)nc(N)nc3N[C@@H]3C[C@H](CO)[C@@H](O)[C@H]3O)sc2c1` [Example 196], the EC90 was < 0.5 µM.
As to `CCCOc1ccc2nc(-c3c(Cl)nc(N)nc3N[C@@H]3C[C@H](CO)[C@@H](O)[C@H]3O)sc2c1` [Example 197], the EC90 was < 0.5 µM.
For `CC1(C)O[C@@H]2[C@@H](CO)C[C@@H](Nc3nc(N)nc(Cl)c3-c3nc4ccc(OCc5ccccc5)cc4s3)[C@@H]2O1` [Example 198], the 90% effect concentration (EC90) was > 5 µM.
Under `Nc1nc(Cl)c(-c2nc3ccc(OCc4ccccc4)cc3s2)c(N[C@@H]2C[C@H](CO)[C@@H](O)[C@H]2O)n1` [Example 199] stands > 5 µM.
On to `CN(C)c1ccc2sc(-c3c(Cl)nc(N)nc3N[C@@H]3C[C@H](CO)[C@@H](O)[C@H]3O)nc2c1` [Example 200], for which the EC90 is < 0.5 µM.
Turning to `COCCNc1nc(Cl)c(-c2nc3ccccc3s2)c(N[C@@H]2C[C@H](CO)[C@@H](O)[C@H]2O)n1` [Example 201], the EC90 was < 0.5 µM.
With `COCCN(C)c1nc(Cl)c(-c2nc3ccccc3s2)c(N[C@@H]2C[C@H](CO)[C@@H](O)[C@H]2O)n1` [Example 202] the figure was 0.5 to 5 µM; with `CCOc1ccc2nc(-c3c(Cl)nc(N(C)C)nc3N[C@@H]3C[C@H](CO)[C@@H](O)[C@H]3O)sc2c1` [Example 203], > 5 µM; with `CN(C)c1ccc2sc(-c3c(Cl)nc(N(C)C)nc3N[C@@H]3C[C@H](CO)[C@@H](O)[C@H]3O)nc2c1` [Example 204], > 5 µM.
Take `COCCNc1nc(C)c(-c2nc3ccccc3s2)c(N[C@@H]2C[C@H](CO)[C@@H](O)[C@H]2O)n1` [Example 205]: the EC90 was < 0.5 µM.
Under `CCOCCNc1nc(Cl)c(-c2nc3ccccc3s2)c(N[C@@H]2C[C@H](CO)[C@@H](O)[C@H]2O)n1` [Example 206] stands < 0.5 µM; under `CCOc1ccc2nc(-c3c(C)nc(N(C)C)nc3N[C@@H]3C[C@H](CO)[C@@H](O)[C@H]3O)sc2c1` [Example 207], > 5 µM.
With `CCOCCNc1nc(C)c(-c2nc3ccccc3s2)c(N[C@@H]2C[C@H](CO)[C@@H](O)[C@H]2O)n1` [Example 208], the concentration for an effect of 90% (EC90) is < 0.5 µM.
Under `CC(=O)OCCNc1nc(Cl)c(-c2nc3ccccc3s2)c(N[C@@H]2C[C@H](CO)[C@@H](O)[C@H]2O)n1` [Example 209] stands < 0.5 µM; under `Cc1nc(NCCO)nc(N[C@@H]2C[C@H](CO)[C@@H](O)[C@H]2O)c1-c1nc2ccccc2s1` [Example 210], < 0.5 µM.
Consider `CC(=O)OCCNc1nc(C)c(-c2nc3ccccc3s2)c(N[C@@H]2C[C@H](CO)[C@@H](O)[C@H]2O)n1` [Example 211], for which the EC90 is < 0.5 µM.
Under `OCCNc1nc(Cl)c(-c2nc3ccccc3s2)c(N[C@@H]2C[C@H](CO)[C@@H](O)[C@H]2O)n1` [Example 212] stands < 0.5 µM; under `OC[C@H]1C[C@@H](Nc2nc(NCCF)nc(Cl)c2-c2nc3ccccc3s2)[C@H](O)[C@@H]1O` [Example 213], < 0.5 µM; under `OC[C@H]1C[C@@H](Nc2nc(NCC(F)F)nc(Cl)c2-c2nc3ccccc3s2)[C@H](O)[C@@H]1O` [Example 214], < 0.5 µM.
With `Cc1nc(NCC(F)F)nc(N[C@@H]2C[C@H](CO)[C@@H](O)[C@H]2O)c1-c1nc2ccccc2s1` [Example 215] the figure was < 0.5 µM; with `Cc1nc(NCCF)nc(N[C@@H]2C[C@H](CO)[C@@H](O)[C@H]2O)c1-c1nc2ccccc2s1` [Example 216], 0.5 to 5 µM.
With `OC[C@H]1C[C@@H](Nc2nc(NCCC(F)(F)F)nc(Cl)c2-c2nc3ccccc3s2)[C@H](O)[C@@H]1O` [Example 217] the figure was < 0.5 µM; with `Cc1nc(NCCC(F)(F)F)nc(N[C@@H]2C[C@H](CO)[C@@H](O)[C@H]2O)c1-c1nc2ccccc2s1` [Example 218], < 0.5 µM.
